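Dose response: 5 concentrations. Exposure: 48 h. Format: 96-well plates. Endpoint: linear interpolation; highest concentration if not reached. GI50 is the concentration that inhibits growth by half.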 Active and inactive are the calls of the source. Cut-off read from the data, not from the text of the source: active = GI50 up to about 1.1 µM and inactive = higher.
Legend:
Assay in all cases: inhibition of tumour cell growth, NCI panel, 48 h
[1] = tested on: HOP-18
[2] = tested on: KM-20L2
[3] = tested on: KM12
[4] = tested on: HL-60
[5] = tested on: XF498
[6] = tested on: SNB-78
[7] = tested on: UACC-257
[8] = tested on: NCI-H226
[9] = tested on: SR
[10] = tested on: SN12C
[11] = tested on: OVCAR-3
[12] = tested on: NCI-H23
[13] = tested on: UO-31
[14] = tested on: SW-620
[15] = tested on: ACHN
[16] = tested on: DLD-1
[17] = tested on: MOLT-4
[18] = tested on: 786-0
[19] = tested on: HCC 2998
[20] = tested on: SK-MEL-28
[21] = tested on: HT-29
[22] = tested on: TK-10
[23] = tested on: Malme-3M
[24] = tested on: DMS-273
[25] = tested on: SK-OV-3
[26] = tested on: U-251
[27] = tested on: SNB-75
[28] = tested on: RPMI-8226
[29] = tested on: SK-MEL-2
[30] = tested on: LXFL 529
[31] = tested on: SF-539
[32] = tested on: SF-268
[33] = tested on: UACC-62
[34] = tested on: NCI-H522
[35] = tested on: EKVX
[36] = tested on: OVCAR-8
[37] = tested on: NCI-H460
[38] = tested on: COLO 205
[39] = tested on: HCT-116
[40] = tested on: A549
[41] = tested on: SNB-19
[42] = tested on: OVCAR-4
[43] = tested on: RXF 393
[44] = tested on: HCT-15
[45] = tested on: M19-MEL
[46] = tested on: CAKI-1
[47] = tested on: OVCAR-5
[48] = tested on: SF-295
[49] = tested on: SK-MEL-5
[50] = tested on: HOP-92
[51] = tested on: K562
[52] = tested on: CCRF-CEM
[53] = tested on: M14
[54] = tested on: HOP-62
[55] = tested on: LOX IMVI
[56] = tested on: IGROV-1
[57] = tested on: A498
[58] = tested on: DMS-114

CN(C)c1ccc(/C=C2\CCc3ccccc3C2=O)cc1Br
GI50 [1]: > 100 µM (inactive)
GI50 [2]: 21.6 µM (inactive)
GI50 [3]: 38.5 µM (inactive)
GI50 [4]: 21.2 µM (inactive)
GI50 [5]: 94.6 µM (inactive)
GI50 [6]: 39.4 µM (inactive)
GI50 [7]: 43.6 µM (inactive)
GI50 [8]: > 100 µM (inactive)
GI50 [9]: 29.2 µM (inactive)
GI50 [10]: > 100 µM (inactive)
GI50 [11]: 49 µM (inactive)
GI50 [12]: 68.7 µM (inactive)
GI50 [13]: > 100 µM (inactive)
GI50 [14]: 34.2 µM (inactive)
GI50 [15]: > 100 µM (inactive)
GI50 [16]: 55.5 µM (inactive)
GI50 [17]: 32.6 µM (inactive)
GI50 [18]: > 100 µM (inactive)
GI50 [19]: > 100 µM (inactive)
GI50 [20]: 71.1 µM (inactive)
GI50 [21]: 33.1 µM (inactive)
GI50 [22]: > 100 µM (inactive)
GI50 [23]: 42.8 µM (inactive)
GI50 [24]: 34.7 µM (inactive)
GI50 [25]: > 100 µM (inactive)
GI50 [26]: 71.8 µM (inactive)
GI50 [27]: > 100 µM (inactive)
GI50 [28]: 24.8 µM (inactive)
GI50 [29]: 48.5 µM (inactive)
GI50 [30]: 48.3 µM (inactive)
GI50 [31]: > 100 µM (inactive)
GI50 [32]: 65 µM (inactive)
GI50 [33]: 40.2 µM (inactive)
GI50 [34]: 23.2 µM (inactive)
GI50 [35]: 99.5 µM (inactive)
GI50 [36]: 41.1 µM (inactive)
GI50 [37]: > 100 µM (inactive)
GI50 [38]: 68.9 µM (inactive)
GI50 [39]: 37.3 µM (inactive)
GI50 [40]: 51.3 µM (inactive)
GI50 [41]: > 100 µM (inactive)
GI50 [42]: 83.9 µM (inactive)
GI50 [43]: 75.5 µM (inactive)
GI50 [44]: 71.1 µM
GI50 [45]: 49.4 µM (inactive)
GI50 [46]: 36.4 µM (inactive)
GI50 [47]: > 100 µM (inactive)
GI50 [48]: > 100 µM (inactive)
GI50 [49]: 25.8 µM (inactive)
GI50 [50]: 62.7 µM (inactive)
GI50 [51]: 33.7 µM (inactive)
GI50 [52]: 36 µM (inactive)
GI50 [53]: 53.6 µM (inactive)
GI50 [54]: > 100 µM (inactive)
GI50 [55]: 32.7 µM (inactive)

Cc1c(C)c([N+](=O)[O-])c2c(c1N)C(=O)c1ccccc1C2=O
GI50 [1]: 33 µM (inactive)
GI50 [2]: > 100 µM (inactive)
GI50 [3]: > 100 µM (inactive)
GI50 [56]: > 100 µM (inactive)
GI50 [4]: > 100 µM (inactive)
GI50 [5]: > 100 µM (inactive)
GI50 [6]: > 100 µM (inactive)
GI50 [57]: > 100 µM (inactive)
GI50 [7]: > 100 µM (inactive)
GI50 [8]: > 100 µM (inactive)
GI50 [9]: > 100 µM (inactive)
GI50 [10]: > 100 µM (inactive)
GI50 [11]: 24.8 µM (inactive)
GI50 [12]: > 100 µM (inactive)
GI50 [13]: > 100 µM (inactive)
GI50 [14]: > 100 µM (inactive)
GI50 [15]: > 100 µM (inactive)
GI50 [16]: > 100 µM (inactive)
GI50 [17]: > 100 µM (inactive)
GI50 [18]: 65.5 µM (inactive)
GI50 [19]: > 100 µM (inactive)
GI50 [20]: > 100 µM (inactive)
GI50 [21]: 55.2 µM (inactive)
GI50 [22]: > 100 µM (inactive)
GI50 [23]: > 100 µM (inactive)
GI50 [24]: > 100 µM (inactive)
GI50 [25]: > 100 µM (inactive)
GI50 [26]: > 100 µM (inactive)
GI50 [27]: > 100 µM (inactive)
GI50 [28]: > 100 µM (inactive)
GI50 [29]: > 100 µM (inactive)
GI50 [30]: > 100 µM (inactive)
GI50 [31]: > 100 µM (inactive)
GI50 [32]: > 100 µM (inactive)
GI50 [33]: > 100 µM (inactive)
GI50 [34]: 61.7 µM (inactive)
GI50 [35]: > 100 µM (inactive)
GI50 [36]: > 100 µM (inactive)
GI50 [38]: 58.9 µM (inactive)
GI50 [39]: > 100 µM (inactive)
GI50 [40]: > 100 µM (inactive)
GI50 [41]: > 100 µM (inactive)
GI50 [43]: > 100 µM (inactive)
GI50 [44]: > 100 µM
GI50 [45]: 90.8 µM (inactive)
GI50 [47]: > 100 µM (inactive)
GI50 [48]: > 100 µM (inactive)
GI50 [49]: > 100 µM (inactive)
GI50 [50]: > 100 µM (inactive)
GI50 [51]: > 100 µM (inactive)
GI50 [52]: > 100 µM (inactive)
GI50 [53]: > 100 µM (inactive)
GI50 [54]: > 100 µM (inactive)
GI50 [58]: > 100 µM (inactive)
GI50 [55]: > 100 µM (inactive)
